Data set [1] concerns HT-29 (colorectal adenocarcinoma). As to the kind of experiment: Sulforhodamine B in vitro growth inhibition assay, HT-29. The data set is classed as cell-based, human. Conditions: for Selectivity Index (SI) MCF-10/HT-29: IC50 in non-cancerogenic cell line / IC50 in cancer cell line. Here is the method: (§1) For this purpose, a colorimetric sulforhodamine B assay was performed to quantify the cytotoxic effect through their respective IC50 values. Each compound’s serial dilutions (12.5, 25, 50, and 100 µM) were evaluated in triplicate. In our study, the human cancer cell lines used were MCF-7 (breast adenocarcinoma); HT-29 (colorectal adenocarcinoma); PC-3 (prostate adenocarcinoma); and MCF-10 control cells (normal breast epithelium). For comparative purposes, the literature IC50 values of daunorubicin and 5-fluorouracil (5-FU), measured in the same cell lines and under the same experimental conditions, were included. Similarly, drimenol (1) was included for comparative purposes.
(§2) The sulforhodamine B assay was used. Briefly, the cells were set up at 5 × 10^3 cells per well of a 96-well microplate for 18 h. Cells were incubated at 37 °C in a humidified 5% CO2/95% air mixture and treated with the compounds at different concentrations for 72 h. At the end of drug exposure, cells were fixed with 50% trichloroacetic acid at 4 °C. After washing with distilled water, cells were stained with 0.1% sulforhodamine B, dissolved in 1% acetic acid (50 μL/well) for 30 min, and, subsequently, washed with 1% acetic acid to remove the unbound stain. The protein-bound stain was solubilized with 100 μL of 10 mM unbuffered Tris base, and the cell density was determined using a […] (wavelength 540 nm). Results are expressed as IC50 values (μM) ± SD.

Data set [2] can be described thus: Sulforhodamine B in vitro growth inhibition assay, MCF-7. The data set is classed as cell-based, human. Conditions: human; ratio of selectivity versus 5-FU; read-out: more selective than 5-FU in MCF-7. Here is the method: as §1, §2
Data set [3] deals with MCF-7 (breast adenocarcinoma). The data set is described as above. The format is cell-based, human. The following applies: for Selectivity Index (SI) MCF-10/MCF-7: IC50 in non-cancerogenic cell line / IC50 in cancer cell line. The method, then: as §1, §2
Data set [4] deals with PC-3 (prostate adenocarcinoma). Kind of data set: Sulforhodamine B in vitro growth inhibition assay, PC-3. The format is cell-based, human. The following applies: for Selectivity Index (SI) MCF-10/PC-3: IC50 in non-cancerogenic cell line / IC50 in cancer cell line. The method, then:
as §1, §2

Experiment in data set [5]: as above
The data set is classed as cell-based, human. Conditions: human; ratio of selectivity versus 5-FU; read-out: more selective than 5-FU in PC-3. The method, then: as §1, §2

Data set [6] has as its target T1, Human recombinant Topoisomerase I (Homo sapiens, UniProt P11387).
T1 construct: purchased Sigma-Aldrich
T1 sequence (P11387 1-765): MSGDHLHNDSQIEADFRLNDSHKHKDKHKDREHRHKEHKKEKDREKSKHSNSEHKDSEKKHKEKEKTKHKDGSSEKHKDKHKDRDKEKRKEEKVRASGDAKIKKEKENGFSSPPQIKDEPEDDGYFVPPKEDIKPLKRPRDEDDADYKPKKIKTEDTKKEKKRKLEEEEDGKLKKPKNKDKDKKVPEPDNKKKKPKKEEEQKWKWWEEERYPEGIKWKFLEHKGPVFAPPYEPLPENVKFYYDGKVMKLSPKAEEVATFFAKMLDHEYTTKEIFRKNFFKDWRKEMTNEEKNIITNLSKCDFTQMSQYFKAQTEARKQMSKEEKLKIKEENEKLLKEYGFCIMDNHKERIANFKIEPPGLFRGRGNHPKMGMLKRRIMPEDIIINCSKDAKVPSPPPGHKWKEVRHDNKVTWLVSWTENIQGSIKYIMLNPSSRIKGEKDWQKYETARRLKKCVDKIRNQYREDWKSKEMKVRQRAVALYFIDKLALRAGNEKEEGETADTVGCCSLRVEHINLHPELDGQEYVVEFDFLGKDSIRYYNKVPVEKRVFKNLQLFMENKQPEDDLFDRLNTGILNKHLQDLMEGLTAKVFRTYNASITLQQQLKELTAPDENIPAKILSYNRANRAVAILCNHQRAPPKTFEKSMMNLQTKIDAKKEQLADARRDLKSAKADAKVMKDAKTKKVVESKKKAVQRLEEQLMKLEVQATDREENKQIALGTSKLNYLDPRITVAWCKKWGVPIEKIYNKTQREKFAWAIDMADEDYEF
Kind of data set: Topoisomerase I activity, relaxation of supercoiled DNA (pEGFP-N1). The data set is classed as biochemical. The following applies: 50 μM, agarose gel, result in words. Here is the method: In this experiment, daunorubicin was used as control due to this compound being reported early as a TOPI inhibitor [31]. First, the optimal concentration of these compounds for the DNA relaxation assays was established.
Topoisomerase I activity was assayed by the relaxation of supercoiled DNA (pEGFP-N1) as the manufacturer’s instructions indicated. Human recombinant Topoisomerase I and buffer were from (Sigma-Aldrich). An amount of 2 μL of 10× topoisomerase I reaction buffer and 200 ng plasmid DNA and the indicated concentrations of compounds were incubated 30 min at 37 °C in Topo I buffer (500 mM Tris·HCl, pH 7.5, 1 M KCl, 10 mM dithiothreitol, 100 mM EDTA, 50 μg/mL acetylated bovine serum albumin (BSA)) in a total volume of 20 μL. The reaction was stopped by the addition of 5 μL of 5× loading dye (composition). Samples were electrophoresed on an 0.8% agarose gel without ethidium bromide for 2–3 h at 5 to 10 V/cm. The gel was stained with ethidium bromide and photographed with a UV transilluminator.

The subject of data set [7] is caspases 3 and 7 on MCF-7 cells. Kind of data set: Caspase-Glo 3/7 assay. Conditions: 50 μM, 24 h. The data set is classed as cell-based, human. Here is the method: To determine the cell death type induced by the most promising aryl-drimane esters, we evaluated their capacity to induce apoptosis through the activation of caspases 3 and 7 on MCF-7 cells. For this purpose, 6a, 6e, 6f, 8c, 8f, and 8g were incubated for 24 h on MCF-7 cells at a concentration of 50 μM, close to the IC50 values for cytotoxicity in most compounds. […] In summary, these drimane derivatives induced apoptosis in the MCF-7 cell line, showing a potential antitumoral effect.
The activity of caspase 3/7 in treated MCF-7 cells was determined using a Caspase-Glo-3/7 Assay kit (Promega, UK—Cat. No G8090). The caspase-Glo 3/7 assay is a homogenous, luminescent assay that measures caspase-3 and -7 activities, both key-players in apoptosis. […] Luminescence was proportional to the amount of caspase present. MCF-7 cells (1 × 10^4 cells per well) were grown in a 96-well white plate and were allowed to adhere overnight. The cells were then treated for 24 h with the synthesized compounds (50 µM), with the inclusion of a blank as a control. After treatment, the Caspase-Glo® 3/7 was prepared according to the manufacturer’s guidelines. Briefly, 100 μL of Caspase-Glo 3/7 reagent was added to 100 μL of culture medium containing the cells previously treated in each well. The content was mixed gently by placing the plate on a shaker for 30 s, and the plate was incubated at room temperature in the dark for 1 h before luminescence was read on a luminometer (Berthold Sirius Single Tube Luminometer, Pforzheim, Germany). Fold change in caspase activity was obtained by first subtracting the luminescence value for the blank well from every other value, and then, expressing the average luminescence of each treatment as a fold change with respect to the average luminescence of the negative control.

Data set [8] relates to MCF-10 control cells (normal breast epithelium). Kind of data set: Sulforhodamine B in vitro growth inhibition assay, MCF-10 control cells. The data set is classed as cell-based. The following applies: Homo sapiens, MCF10, 72 h of treatment, IC50 ± SD, non-tumoral cells. The method, then: as §1, §2
Data set [9] shares this test system. The following applies: literature value, same experimental conditions; cited from earlier work.
Data set [10] concerns MCF-7 (breast adenocarcinoma). Conditions: literature value, same experimental conditions; cited from earlier work.
The test system of data set [11] is PC-3 (prostate adenocarcinoma). The following applies: literature value, same experimental conditions; cited from earlier work.
Data set [12] deals with HT-29 (colorectal adenocarcinoma). Set-up: method as in PMID 25412045. The following applies: literature value, same experimental conditions; cited from earlier work.

Read-outs that look alike come from different tables or passages of the source.

Usually IC50 stands for the concentration needed to halve the response being measured. Consider `CC1=C(C(=O)Oc2cc(C)cc(O)c2)[C@@]2(C)CCCC(C)(C)C2CC1` (stereo partly drawn) [6a, 3-Hydroxy-5-methylphenyl-(8aS)-2,5,5,8a-tetramethyl-3,4,4a,5,6,7,8,8a-octahydronaphthalene-1-carboxylate], for which the IC50 amounted to 56.9 ± 4 µM in [1] (Homo sapiens, HT-29, sulforhodamine B assay, 72 h of treatment, IC50 ± SD); 33.7 ± 1.3 µM in [3] (Homo sapiens, MCF7, sulforhodamine B assay, 72 h of treatment, IC50 ± SD); 85.5 ± 7.1 µM in [4] (Homo sapiens, sulforhodamine B assay, 72 h of treatment, IC50 ± SD); 67.2 ± 6.3 µM in data set [8]. In addition, the “Selectivity Index (SI) MCF-10/HT-29” value in [1] came out at 1.2. For the same compound, the figures for the selectivity ratio at 72 h in data set [2] and in data set [5] were 100 and 20, respectively. The “Selectivity Index (SI) MCF-10/MCF-7” value in [3] is on record as 2.0. In data set [4], the “Selectivity Index (SI) MCF-10/PC-3” value was 0.8. In data set [6], the “inhibition of TOP1-induced DNA relaxation” value is “more prominent”. Also, the “caspases-3/7 activity over the control” value in [7] was “two-fold”.
On to `COc1cccc2c1C(=O)c1c(O)c3c(c(O)c1C2=O)C[C@@](O)(C(C)=O)C[C@@H]3O[C@H]1C[C@H](N)[C@H](O)[C@H](C)O1` [Daunorubicin, reference compound], for which, in data set [1], the “Selectivity Index (SI) MCF-10/HT-29” value came out at 0.6. The half-inhibitory concentration (IC50) in data set [9] is 9.32 ± 1.01 µM; in data set [10] it was 0.33 ± 0.02 µM; in data set [11] it was 0.41 ± 0.04 µM; in data set [12] it was 15.1 ± 0.5 µM. The “Selectivity Index (SI) MCF-10/MCF-7” value in data set [3] was determined as 28. Besides, the “Selectivity Index (SI) MCF-10/PC-3” value in data set [4] turned out to be 23. The “inhibition of TOP1-induced DNA relaxation” value in data set [6] is “modified the TOP1-induced DNA relaxation in a minor way than compounds 6a and 8c”.

Source of the values: paper PMC10179937, “Cytotoxic Activity, Topoisomerase I Inhibition and In Silico Studies of New Sesquiterpene-aryl Ester Derivatives of (-) Drimenol” (Molecules, 2023).
